# Non-standard residues stand in square brackets, D forms with d. Residues, ends and D or L forms follow the SMILES beside them. ξ: configuration not given here. Pro(3ξ,4ξ-(CH2)4) = O=C(O)[C@H]1NCC2CCCCC21; Oic = O=C(O)[C@@H]1C[C@@H]2CCCC[C@@H]2N1; Tic = O=C(O)[C@@H]1Cc2ccccc2CN1; dTic = O=C(O)[C@H]1Cc2ccccc2CN1; Ahx = NCCCCCC(=O)O; GABA = NCCCC(=O)O; βAla = NCCC(=O)O
# Assays:
# Salmonella typhimurium = assay: Antibacterial activity against Salmonella Typhimurium ATCC 13311; assay type: functional, Salmonella enterica subsp. enterica serovar Typhimurium; settings: Salmonella enterica
# Staphylococcus aureus = assay: Antibacterial activity against methicillin/gentamicin/tetracycline resistant Staphylococcus aureus ATCC 33592; assay type: functional
# Mycobacterium = assay: Antibacterial activity against Mycobacterium ranae ATCC 110; assay type: functional
# Bacillus subtilis = assay: Antibacterial activity against Bacillus subtilis ATCC 43223; assay type: functional
# [1] = Toxicity to mouse RBC assessed as hemolytic activity at 100 uM; assay type: cell-based, Erythrocyte; settings: red blood cells, read-out: Activity
# [2] = Toxicity to mouse RBC assessed as hemolytic activity at 25 uM; assay type: cell-based, Erythrocyte; settings: red blood cells, read-out: Activity
# Mus musculus [3] = assay: Acute toxicity in mouse at 1 mg/kg, ip after 6 days; assay type: organism-based; set-up: dose 1 mg/kg, route intraperitoneal; settings: in vivo, 144 h
# Mus musculus [4] = assay: Acute toxicity in mouse at 5 mg/kg, ip after 6 days; assay type: organism-based; set-up: dose 5 mg/kg, route intraperitoneal; settings: in vivo, 144 h
# Mus musculus [5] = assay: Acute toxicity in mouse at 25 mg/kg, ip after 6 days; assay type: organism-based; set-up: dose 25 mg/kg, route intraperitoneal; settings: in vivo, 144 h
# Mus musculus [6] = assay: Effect on wound healing in CD1 mouse skin at 100 ug applied topically after 3 days; assay type: functional
# Mus musculus [7] = assay: Effect on wound healing in CD1 mouse skin at 100 ug applied topically after 5 days; assay type: functional
# Mus musculus [8] = assay: Effect on wound healing in CD1 mouse skin at 100 ug applied topically after 7 days; assay type: functional
# Mus musculus [9] = assay: Effect on wound healing in CD1 mouse skin at 100 ug applied topically after 9 days; assay type: functional
# Mus musculus [10] = assay: Effect on wound healing in CD1 mouse skin at 100 ug applied topically after 11 days; assay type: functional
# Mus musculus [11] = assay: Effect on wound healing in CD1 mouse skin at 100 ug applied topically; assay type: functional
# Mus musculus [12] = assay: Acute toxicity in mouse at 125 mg/kg, ip after 6 days; assay type: organism-based; set-up: dose 125 mg/kg, route intraperitoneal; settings: in vivo, 144 h
SMILES,MIC (Salmonella typhimurium),MIC (Staphylococcus aureus),MIC (Mycobacterium),MIC (Bacillus subtilis),hemolysis at 100 µM [1],hemolysis at 25 µM [2],Activity (Mus musculus [3]),Activity (Mus musculus [4]),Activity (Mus musculus [5]),Activity (Mus musculus [6]),Activity (Mus musculus [7]),Activity (Mus musculus [8]),Activity (Mus musculus [9]),Activity (Mus musculus [10]),CT50 (Mus musculus [11]),Activity (Mus musculus [12])
"CC(=O)NCCCCCC(=O)N[C@@H](Cc1ccccc1)C(=O)N1Cc2ccccc2C[C@H]1C(=O)N1CC2CCCCC2[C@H]1C(=O)NCCCCCC(=O)N[C@@H](CCCCN)C(=O)N1Cc2ccccc2C[C@H]1C(=O)N1CC2CCCCC2[C@H]1C(=O)NCCCCCC(=O)N[C@@H](Cc1ccccc1)C(=O)N1Cc2ccccc2C[C@H]1C(=O)N1CC2CCCCC2[C@H]1C(=O)NCCCCCC(=O)N[C@@H](CCCCN)C(=O)N1Cc2ccccc2C[C@H]1C(=O)N[C@@H](CCCCN)C(=O)N[C@@H](CCCCN)C(=O)N[C@@H](CCCCN)C(=O)N[C@@H](CCCCN)C(N)=O (some centres undefined) (Ac-[Ahx]F[Tic][Pro(3ξ,4ξ-(CH2)4)][Ahx]K[Tic][Pro(3ξ,4ξ-(CH2)4)][Ahx]F[Tic][Pro(3ξ,4ξ-(CH2)4)][Ahx]K[Tic]KKKK-NH2)",10 µM,10 µM,3 µM,1 µM,44.7%,26.6%,,,,,,,,,,
CC(=O)NCCCC(=O)N[C@@H](Cc1ccccc1)C(=O)N1Cc2ccccc2C[C@H]1C(=O)N1[C@H](C(=O)NCCCC(=O)N[C@@H](CCCCN)C(=O)N2Cc3ccccc3C[C@H]2C(=O)N2[C@H](C(=O)NCCCC(=O)N[C@@H](Cc3ccccc3)C(=O)N3Cc4ccccc4C[C@H]3C(=O)N3[C@H](C(=O)NCCCC(=O)N[C@@H](CCCCN)C(=O)N4Cc5ccccc5C[C@H]4C(=O)N[C@@H](CCCCN)C(=O)N[C@@H](CCCCN)C(=O)N[C@@H](CCCCN)C(=O)N[C@@H](CCCCN)C(N)=O)C[C@@H]4CCCC[C@@H]43)C[C@@H]3CCCC[C@@H]32)C[C@@H]2CCCC[C@@H]21 (Ac-[GABA]F[Tic][Oic][GABA]K[Tic][Oic][GABA]F[Tic][Oic][GABA]K[Tic]KKKK-NH2) [listing 1 of 2 here],,,,,10.8%,1%,Non-toxic,Non-toxic,Non-toxic,,,,,,,
CC(=O)NCCCC(=O)N[C@@H](Cc1ccccc1)C(=O)N1Cc2ccccc2C[C@H]1C(=O)N1[C@H](C(=O)NCCCC(=O)N[C@@H](CCCCN)C(=O)N2Cc3ccccc3C[C@H]2C(=O)N2[C@H](C(=O)NCCCC(=O)N[C@@H](Cc3ccccc3)C(=O)N3Cc4ccccc4C[C@H]3C(=O)N3[C@H](C(=O)NCCCC(=O)N[C@@H](CCCCN)C(=O)N4Cc5ccccc5C[C@H]4C(=O)N[C@@H](CCCCN)C(=O)N[C@@H](CCCCN)C(=O)N[C@@H](CCCCN)C(=O)N[C@@H](CCCCN)C(N)=O)C[C@@H]4CCCC[C@@H]43)C[C@@H]3CCCC[C@@H]32)C[C@@H]2CCCC[C@@H]21 (Ac-[GABA]F[Tic][Oic][GABA]K[Tic][Oic][GABA]F[Tic][Oic][GABA]K[Tic]KKKK-NH2) [listing 2 of 2 here],100 µM,10 µM,10 µM,1 µM,,,,,,39.7%,54.1%,64.9%,72.7%,79%,5.7 days,
"CC(=O)NCCC(=O)N[C@@H](Cc1ccccc1)C(=O)N1Cc2ccccc2C[C@H]1C(=O)N1CC2CCCCC2[C@H]1C(=O)NCCC(=O)N[C@@H](CCCCN)C(=O)N1Cc2ccccc2C[C@H]1C(=O)N1CC2CCCCC2[C@H]1C(=O)NCCC(=O)N[C@@H](Cc1ccccc1)C(=O)N1Cc2ccccc2C[C@@H]1C(=O)N1CC2CCCCC2[C@H]1C(=O)NCCC(=O)N[C@@H](CCCCN)C(=O)N1Cc2ccccc2C[C@H]1C(=O)N[C@@H](CCCCN)C(=O)N[C@@H](CCCCN)C(=O)N[C@@H](CCCCN)C(=O)N[C@@H](CCCCN)C(N)=O (some centres undefined) (Ac-[βAla]F[Tic][Pro(3ξ,4ξ-(CH2)4)][βAla]K[Tic][Pro(3ξ,4ξ-(CH2)4)][βAla]F[dTic][Pro(3ξ,4ξ-(CH2)4)][βAla]K[Tic]KKKK-NH2)",10 µM,10 µM,1 µM,1 µM,24.4%,7.4%,,Toxic,Toxic,,,,,,,Toxic
"CC(C)C[C@H](NC(=O)[C@@H](N)CCCCN)C(=O)N1Cc2ccccc2C[C@H]1C(=O)N1CC2CCCCC2[C@H]1C(=O)NCC(=O)N[C@@H](CCCCN)C(=O)N1Cc2ccccc2C[C@H]1C(=O)N1CC2CCCCC2[C@H]1C(=O)NCC(=O)N[C@@H](Cc1ccccc1)C(=O)N1Cc2ccccc2C[C@H]1C(=O)N1CC2CCCCC2[C@H]1C(=O)NCC(=O)N[C@@H](CCCCN)C(=O)N1Cc2ccccc2C[C@H]1C(=O)N[C@@H](CCCCN)C(=O)N[C@@H](CCCCN)C(=O)N[C@@H](CCCCN)C(=O)N[C@@H](CCCCN)C(N)=O (some centres undefined) (H-KL[Tic][Pro(3ξ,4ξ-(CH2)4)]GK[Tic][Pro(3ξ,4ξ-(CH2)4)]GF[Tic][Pro(3ξ,4ξ-(CH2)4)]GK[Tic]KKKK-NH2)",3 µM,30 µM,3 µM,1 µM,43.6%,24.9%,Non-toxic,Non-toxic,Non-toxic,,,,,,,
